This is an account of results in BindingDB's records for PubMed 10215699 (Gliatech, 1999).

Where “and” joins values, the source holds several entries; their conditions need not be identical. Equal values may be shown once.

Some targets named below: Hrh3 protein (Rattus norvegicus, UniProt Q5PPG3); Histamine H3 receptor (Homo sapiens, UniProt Q9Y5N1); Histamine H2 receptor (Homo sapiens, UniProt P25021).

Sequence of Hrh3 protein (Q5PPG3 whole entry): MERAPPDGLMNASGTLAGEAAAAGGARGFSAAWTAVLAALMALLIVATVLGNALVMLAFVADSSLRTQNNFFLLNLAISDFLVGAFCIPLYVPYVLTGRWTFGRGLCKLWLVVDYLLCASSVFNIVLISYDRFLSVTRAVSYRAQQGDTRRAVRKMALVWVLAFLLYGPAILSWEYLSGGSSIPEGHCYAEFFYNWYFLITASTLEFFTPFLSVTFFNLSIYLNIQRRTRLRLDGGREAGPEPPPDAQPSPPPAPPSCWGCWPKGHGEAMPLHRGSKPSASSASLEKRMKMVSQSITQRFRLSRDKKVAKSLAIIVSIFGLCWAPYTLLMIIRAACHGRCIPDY
Sequence of Histamine H3 receptor (Q9Y5N1 whole entry): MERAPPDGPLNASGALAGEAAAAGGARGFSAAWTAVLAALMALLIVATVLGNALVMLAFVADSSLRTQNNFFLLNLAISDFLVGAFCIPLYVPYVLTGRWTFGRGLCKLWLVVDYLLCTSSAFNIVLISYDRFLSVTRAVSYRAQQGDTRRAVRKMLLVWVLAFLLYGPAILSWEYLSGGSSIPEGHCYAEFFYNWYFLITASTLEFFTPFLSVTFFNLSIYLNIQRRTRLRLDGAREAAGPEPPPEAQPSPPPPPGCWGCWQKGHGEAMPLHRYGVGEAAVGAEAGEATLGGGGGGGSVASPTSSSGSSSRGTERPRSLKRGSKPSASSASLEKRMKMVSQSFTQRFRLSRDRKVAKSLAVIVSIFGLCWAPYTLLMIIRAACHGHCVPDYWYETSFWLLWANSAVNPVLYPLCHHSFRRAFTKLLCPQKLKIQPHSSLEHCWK
Sequence of Histamine H2 receptor (P25021 whole entry): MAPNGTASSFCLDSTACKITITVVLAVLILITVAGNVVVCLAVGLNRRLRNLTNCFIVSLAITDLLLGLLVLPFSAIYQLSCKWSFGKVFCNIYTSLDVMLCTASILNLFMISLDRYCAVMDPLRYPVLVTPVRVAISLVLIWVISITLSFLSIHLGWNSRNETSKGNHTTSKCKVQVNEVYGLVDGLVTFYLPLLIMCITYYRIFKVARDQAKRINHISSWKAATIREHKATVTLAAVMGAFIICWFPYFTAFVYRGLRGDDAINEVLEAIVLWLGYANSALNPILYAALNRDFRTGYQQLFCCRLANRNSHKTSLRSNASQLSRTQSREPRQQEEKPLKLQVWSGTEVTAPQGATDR

The term Ki denotes the equilibrium dissociation constant of an inhibitor or competing ligand from its target. `CC(C)(C)CCC#CCCc1c[nH]cn1`: the Ki on Hrh3 protein turned out to be 0.83 nM.

`N[C@@H](Cc1ccccc1)C(=O)NCCc1c[nH]cn1` [GT 2130] showed a Ki on Hrh3 protein of 104 nM.

Turning to `N[C@H](Cc1ccccc1)C(=O)NCCc1c[nH]cn1` [GT 2136], at Hrh3 protein, the inhibitory constant (Ki) stood at 2810 nM.

In the case of `N[C@@H](CC1CCCCC1)C(=O)NCCc1cnc[nH]1` [GT 2140], the Ki on Hrh3 protein is 31 nM.

The molecule `CN[C@@H](Cc1ccccc1)C(=O)NCCc1c[nH]cn1` [GT 2142] registered a Ki at Hrh3 protein of 1590 nM. Compared with the last molecule, the Ki is about 51-fold higher.

On Hrh3 protein, `N[C@H](C(=O)NCCc1c[nH]cn1)c1ccccc1` [GT 2146] registered a Ki of 630 nM.

As to `N[C@@H](CCc1ccccc1)C(=O)NCCc1c[nH]cn1` [GT 2148], at Hrh3 protein, the Ki amounted to 11 nM.

The molecule `O=C(CCCC1CCCCC1)NCCc1cnc[nH]1` [GT 2174] displayed a Ki at Hrh3 protein of 16 nM.

In the case of `C(=CCCC1CCCCC1)CCc1cnc[nH]1` [GT 2228], the Ki at Histamine H3 receptor was 3.2 nM; at Hrh3 protein, 4.2 nM and 15.2 nM; at Histamine H2 receptor, 4470 nM.

For the molecule `N[C@H](C=CCCc1cnc[nH]1)CC1CCCCC1` [GT 2231], the inhibition constant (Ki) on Hrh3 protein came out at 1 nM.

For `C(#CCCC1CCCCC1)CCc1c[nH]cn1` [GT 2260], at Hrh3 protein, the Ki amounted to 2.9 nM.

The molecule `C(#CCCC1CCCC1)CCc1c[nH]cn1` [GT 2286] registered a Ki on Hrh3 protein of 0.95 nM.

For `C(#CCCc1c[nH]cn1)CCCC1CCCCC1` [GT 2287], affinity on Hrh3 protein was put at a Ki of 3.4 nM.

Molecule `C(#Cc1c[nH]cn1)CCCC1CCCCC1` [GT 2288] displayed a Ki on Hrh3 protein of 1030 nM.

The molecule `c1ncc(CCCCCCC2CCCCC2)[nH]1` [GT 2321] returned an inhibitory constant (Ki) at Hrh3 protein of 75 nM.

Consider `C(=CCCc1cnc[nH]1)CCc1ccccc1` [GT 2327], for which the Ki on Hrh3 protein is 5.5 nM.
